The test system of this assay is BDF1 mice, s.c. Lewis lung carcinoma, T/C %. Kind of assay: NCI In Vivo Anticancer Drug Screen. Data for tumor model Lewis Lung Carcinoma (subcutaneous) in B6D2F1 (BDF1) mice. In short, it runs like this: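 Tumor-bearing mice were treated with test compound, and either survival or tumor size was recorded. Values are the treated-group measurement divided by that of the vehicle-treated control group.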

The mark [1] stands for this setting: endpoint: mean tumor weight, dose: 12.5 mg/kg/injection, schedule: Q01DX011 (ip), vehicle: saline, higher = larger tumour.
Setting [2] is: endpoint: mean tumor weight, dose: 25.0 mg/kg/injection, schedule: Q01DX011 (ip), vehicle: saline, higher = larger tumour.
The mark [3] stands for this setting: endpoint: mean tumor weight, dose: 50.0 mg/kg/injection, schedule: Q01DX011 (ip), vehicle: saline, higher = larger tumour.
[4] abbreviates: endpoint: median survival time, dose: 50.0 mg/kg/injection, schedule: Q01DX009 (ip), vehicle: Klucel (hydroxypropylcellulose) (HPC), higher = longer survival.
Setting [5] is: endpoint: median survival time, dose: 100.0 mg/kg/injection, schedule: Q01DX009 (ip), vehicle: Klucel (hydroxypropylcellulose) (HPC), higher = longer survival.
Setting [6] is: endpoint: mean tumor weight, dose: 100.0 mg/kg/injection, schedule: Q01DX011 (ip), vehicle: saline, higher = larger tumour.

“And” between values parts separate entries of the source, which are not always exact repeats. Equal entries are not always repeated. Results filed as inconclusive are left out.

Regarding `NC(=NCc1ccccc1)c1ccc(N=C(N)c2ccc(C(N)=Nc3ccc(C(N)=NCc4ccccc4)cc3)cc2)cc1`, the T/C is 113 % of control (endpoint: median survival time, dose: 2.5 mg/kg/injection, schedule: Q01DX009 (ip), vehicle: saline, higher = longer survival); 107 % of control (endpoint: median survival time, dose: 5.0 mg/kg/injection, schedule: Q01DX009 (ip), vehicle: saline, higher = longer survival); 111 % of control (endpoint: median survival time, dose: 10.0 mg/kg/injection, schedule: Q01DX009 (ip), vehicle: saline, higher = longer survival).
As to `Oc1cc(N2CC2)c(O)cc1N1CC1`, the T/C is, setting by setting: (endpoint: median survival time, dose: 0.22 mg/kg/injection, schedule: Q01DX009 (ip), vehicle: saline, higher = longer survival) 106 % of control; (endpoint: median survival time, dose: 0.44 mg/kg/injection, schedule: Q01DX009 (ip), vehicle: saline, higher = longer survival) 105 % of control; (endpoint: median survival time, dose: 0.68 mg/kg/injection, schedule: Q01DX009 (ip), vehicle: saline, higher = longer survival) 110 % of control; (endpoint: median survival time, dose: 1.0 mg/kg/injection, schedule: Q01DX009 (ip), vehicle: saline, higher = longer survival) 90 % of control.
In the case of `Nc1nc(N)c(N=O)c(Nc2ccc(Br)cc2)n1`, the T/C runs as follows: (endpoint: mean tumor weight, dose: 10.0 mg/kg/injection, schedule: Q01DX011 (ip), vehicle: other, higher = larger tumour) 76 % of control; (endpoint: mean tumor weight, dose: 20.0 mg/kg/injection, schedule: Q01DX011 (ip), vehicle: other, higher = larger tumour) 114 % of control; (endpoint: mean tumor weight, dose: 40.0 mg/kg/injection, schedule: Q01DX011 (ip), vehicle: other, higher = larger tumour) 70 % of control; (endpoint: mean tumor weight, dose: 80.0 mg/kg/injection, schedule: Q01DX011 (ip), vehicle: other, higher = larger tumour) 44 % of control and 45 % of control; (endpoint: mean tumor weight, dose: 160.0 mg/kg/injection, schedule: Q01DX011 (ip), vehicle: other, higher = larger tumour) 47 % of control; (endpoint: mean tumor weight, dose: 320.0 mg/kg/injection, schedule: Q01DX011 (ip), vehicle: other, higher = larger tumour) 62 % of control.
For the molecule `O=C1C=CC(=Nc2ccc(O)c3ncccc23)c2cccnc21`, the T/C reads like this: under setting [1], 94 % of control; under setting [2], 49 % of control; under setting [3], 26 % of control.
`CNC1C(O)C(NC)C2OC3(O)C(=O)CC(C)OC3OC2C1O` (stereo not drawn): the T/C is, setting by setting: (endpoint: median survival time, dose: 25.0 mg/kg/injection, schedule: Q01DX009 (ip), vehicle: saline, higher = longer survival) 111 % of control; (endpoint: median survival time, dose: 50.0 mg/kg/injection, schedule: Q01DX009 (ip), vehicle: saline, higher = longer survival) 96 % of control; (endpoint: median survival time, dose: 100.0 mg/kg/injection, schedule: Q01DX009 (ip), vehicle: saline, higher = longer survival) 110 % of control.
Turning to `CNC(=O)Nc1ccccc1C(=O)NN`, the T/C by setting is: (endpoint: median survival time, dose: 25.0 mg/kg/injection, schedule: Q01DX009 (ip), vehicle: Klucel (hydroxypropylcellulose) (HPC), higher = longer survival) 113 % of control; under setting [4], 96 % of control; under setting [5], 102 % of control; (endpoint: median survival time, dose: 200.0 mg/kg/injection, schedule: Q01DX009 (ip), vehicle: Klucel (hydroxypropylcellulose) (HPC), higher = longer survival) 93 % of control.
For the molecule `CCC[CH2][Sn]1([CH2]CCC)[O]OC(c2ccc(C)cc2)[O]1` (stereo not drawn), the T/C (endpoint: median survival time, dose: 0.19 mg/kg/injection, schedule: Q01DX009 (ip), vehicle: saline with Tween-80, higher = longer survival) is 98 % of control; the T/C (endpoint: median survival time, dose: 0.75 mg/kg/injection, schedule: Q01DX009 (ip), vehicle: saline with Tween-80, higher = longer survival) was 107 % of control; the T/C (endpoint: median survival time, dose: 1.5 mg/kg/injection, schedule: Q01DX009 (ip), vehicle: saline with Tween-80, higher = longer survival) is 98 % of control; the T/C (endpoint: median survival time, dose: 3.0 mg/kg/injection, schedule: Q01DX009 (ip), vehicle: saline with Tween-80, higher = longer survival) was 119 % of control; the T/C (endpoint: median survival time, dose: 3.13 mg/kg/injection, schedule: Q01DX009 (ip), vehicle: saline with Tween-80, higher = longer survival) was 121 % of control.
In the case of `COc1cc(OC)c(OC)cc1/C=C\c1ccnc2ccccc12`, the T/C is, setting by setting: under setting [4], 94 % of control; under setting [5], 93 % of control; (endpoint: median survival time, dose: 400.0 mg/kg/injection, schedule: Q01DX009 (ip), vehicle: Klucel (hydroxypropylcellulose) (HPC), higher = longer survival) 97 % of control.
Regarding `O=[N+]([O-])c1ccccc1CSc1ncnc2nc[nH]c12`, the T/C was 38 % of control (endpoint: mean tumor weight, dose: 15.6 mg/kg/injection, schedule: Q01DX011 (ip), vehicle: other, higher = larger tumour); 86 % of control (endpoint: mean tumor weight, dose: 31.3 mg/kg/injection, schedule: Q01DX011 (ip), vehicle: other, higher = larger tumour); 82 % of control (endpoint: mean tumor weight, dose: 62.5 mg/kg/injection, schedule: Q01DX011 (ip), vehicle: other, higher = larger tumour); 41 % of control (endpoint: mean tumor weight, dose: 125.0 mg/kg/injection, schedule: Q01DX011 (ip), vehicle: other, higher = larger tumour).
As for `O=NN(CCCl)C(=O)NC1CCS(=O)(=O)CC1`, the T/C reads like this: (endpoint: median survival time, dose: 5.0 mg/kg/injection, schedule: Q04DX004 (ip), vehicle: Klucel (hydroxypropylcellulose) (HPC), higher = longer survival) 180 % of control; (endpoint: median survival time, dose: 7.0 mg/kg/injection, schedule: Q04DX004 (ip), vehicle: Klucel (hydroxypropylcellulose) (HPC), higher = longer survival) 231 % of control; (endpoint: median survival time, dose: 7.0 mg/kg/injection, schedule: Q04DX004 (ip), vehicle: carboxymethylcellulose (CMC), higher = longer survival) 121 % of control and 345 % of control; (endpoint: median survival time, dose: 8.5 mg/kg/injection, schedule: Q04DX004 (ip), vehicle: carboxymethylcellulose (CMC), higher = longer survival) 109 % of control; (endpoint: median survival time, dose: 8.5 mg/kg/injection, schedule: Q07DX002 (ip), vehicle: carboxymethylcellulose (CMC), higher = longer survival) 218 % of control; (endpoint: median survival time, dose: 10.0 mg/kg/injection, schedule: Q04DX004 (ip), vehicle: carboxymethylcellulose (CMC), higher = longer survival) 123 % of control. The T/C (endpoint: median survival time, dose: 11.0 mg/kg/injection, schedule: Q07DX002 (ip), vehicle: carboxymethylcellulose (CMC), higher = longer survival) was 381 % of control and the T/C (endpoint: median survival time, dose: 14.0 mg/kg/injection, schedule: Q07DX002 (ip), vehicle: carboxymethylcellulose (CMC), higher = longer survival) was 200 % of control.
Take `O=NN(CCCl)C(=O)Nc1ncc([N+](=O)[O-])s1`: the T/C (endpoint: median survival time, dose: 154.0 mg/kg/injection, schedule: Q01DX001 (ip), vehicle: other, higher = longer survival) is 112 % of control.
As to `Cc1cn(C2OC(CO)C(O)C2O)c(=O)[nH]c1=O` (stereo not drawn), the T/C reads like this: (endpoint: mean tumor weight, dose: 62.5 mg/kg/injection, schedule: Q01DX011 (ip), vehicle: saline, higher = larger tumour) 94 % of control; (endpoint: mean tumor weight, dose: 500.0 mg/kg/injection, schedule: Q01DX011 (ip), vehicle: saline, higher = larger tumour) 109 % of control.
As to `O=c1[nH]c(=O)c2[nH]cnc2[nH]1`, the T/C under setting [1] is 97 % of control; the T/C under setting [2] is 73 % of control; the T/C under setting [3] was 75 % of control and 76 % of control; the T/C under setting [6] is 118 % of control; the T/C (endpoint: mean tumor weight, dose: 200.0 mg/kg/injection, schedule: Q01DX011 (ip), vehicle: saline, higher = larger tumour) is 109 % of control.
In the case of `C[C@@H]1CCC[C@@H](NC(=O)N(CCCl)N=O)C1`, the T/C is 97 % of control (endpoint: median survival time, dose: 4.68 mg/kg/injection, schedule: Q01DX009 (ip), vehicle: Klucel (hydroxypropylcellulose) (HPC), higher = longer survival); 98 % of control (endpoint: median survival time, dose: 9.37 mg/kg/injection, schedule: Q01DX009 (ip), vehicle: Klucel (hydroxypropylcellulose) (HPC), higher = longer survival); 108 % of control (endpoint: median survival time, dose: 18.75 mg/kg/injection, schedule: Q01DX009 (ip), vehicle: Klucel (hydroxypropylcellulose) (HPC), higher = longer survival).
`CNc1nc(N(C)C)nc(N(C)C)n1`: the T/C is 91 % of control (endpoint: median survival time, dose: 67.0 mg/kg/injection, schedule: Q01DX009 (ip), vehicle: water, higher = longer survival) and 116 % of control (endpoint: median survival time, dose: 100.0 mg/kg/injection, schedule: Q01DX009 (ip), vehicle: water, higher = longer survival).
As to `[Cl][Hg][c]1ccc2ccccc2c1`, the T/C is, setting by setting: (endpoint: median survival time, dose: 3.0 mg/kg/injection, schedule: Q01DX009 (ip), vehicle: gum acacia, higher = longer survival) 89 % of control; (endpoint: median survival time, dose: 6.0 mg/kg/injection, schedule: Q01DX009 (ip), vehicle: gum acacia, higher = longer survival) 108 % of control.
As to `NC(Cc1c[nH]c2ccc(N(CCCl)CCCl)cc12)C(=O)O` (stereo not drawn), the T/C reads like this: (endpoint: mean tumor weight, dose: 0.13 mg/kg/injection, schedule: Q01DX011 (ip), vehicle: saline, higher = larger tumour) 90 % of control; (endpoint: mean tumor weight, dose: 0.5 mg/kg/injection, schedule: Q01DX011 (ip), vehicle: saline, higher = larger tumour) 90 % of control; (endpoint: mean tumor weight, dose: 1.0 mg/kg/injection, schedule: Q01DX011 (ip), vehicle: saline, higher = larger tumour) 98 % of control; (endpoint: mean tumor weight, dose: 2.0 mg/kg/injection, schedule: Q01DX011 (ip), vehicle: saline, higher = larger tumour) 102 % of control.
As for `CC1CCC2C(C)C3C(CC4C5CC=C6CC(OC7OC(CO)C(O)C(OC8OC(CO)C(O)C(O)C8O)C7OC7OC(C)C(O)C(O)C7O)CCC6(C)C5CCC43C)N2C1` (stereo not drawn), the T/C runs as follows: (endpoint: mean tumor weight, dose: 54.0 mg/kg/injection, schedule: Q01DX011 (sc), vehicle: steriod suspending solution, higher = larger tumour) 112 % of control; (endpoint: mean tumor weight, dose: 80.0 mg/kg/injection, schedule: Q01DX011 (sc), vehicle: steriod suspending solution, higher = larger tumour) 69 % of control; (endpoint: mean tumor weight, dose: 120.0 mg/kg/injection, schedule: Q01DX011 (sc), vehicle: steriod suspending solution, higher = larger tumour) 76 % of control.
For `CN1C2CCC1CC(OC(=O)C(CO)c1ccccc1)C2` (stereo not drawn), the T/C under setting [1] was 92 % of control, the T/C under setting [3] was 72 % of control and the T/C under setting [6] is 154 % of control.

Values taken from PubChem BioAssay AID270 (DTP/NCI, 2004).
